{"source": "patent US5221625A", "about": "“Cyclcic FR-900520 microbial biotransformation agent” (Merck & Co., Inc., priority 1992, dated 1993)", "key": {"[1]": {"details": "reputed; vs cyclosporin; cited from earlier work"}, "[2]": {"system": "mouse T lymphocytes (splenic T-cells)", "test": "T-cell proliferation assay (ionomycin plus PMA induced, tritiated thymidine uptake)", "format": "cell-based, mouse (C57Bl/6)", "experimental": "The principle of this assay is to measure the proliferation of mouse T lumphocytes stimulated with the combination of ionomycin plus PMA.\nCells were pelleted by centrifugation at 1500 rpm for 8 minutes. Contaminating red cells were removed by treating the pellet with ammonium chloride lysing buffer (GIBCO) for 2 minutes at 4° C. Cold medium was added and cells were again centrifuged at 1500 rpm for 8 minutes. T lumphocytes were then isolated by separation of the cell suspension on nylon wool columns as follows: Nylon wool columns were prepared by packing approximately 4 grams of washed and dried nylon wool into 20 ml plastic syringes. The columns were sterilized by autoclaving at 250° F. for 30 minutes. Nylon wool columns were wetted with warm (37° C.) culture medium and rinsed with the same medium. Washed spleen cells resuspended in warm medium were slowly applied to the nylon wool. The columns were then incubated in an upright position at 37° C. for 1 hours. […]\nThe cell suspension was immediately distributed into 96 well flat-bottom microculture plates (Costar) at 200 μl/well. […] Radioactivity of filter discs corresponding to individual wells was measured by standard liquid scintillation counting method (Betacounter). Mean counts per minute of replicate wells were calculated and the results expressed as percent inhibition of tritiated thymidine uptake (proliferation) as follows: [formula]"}, "[3]": {"system": "FK-506 immunosuppressive activity", "test": "antagonist activity versus the FK-506 immunosuppressive activity by the T-cell proliferation assay", "format": "cell-based", "details": "qualitative"}}, "data": [{"compound": "C=CC[C@@H]1/C=C(\\C)C[C@H](C)C[C@H](OC)[C@H]2O[C@@](O)(C(=O)C(=O)N3CCCC[C@H]3C(=O)O[C@H](/C(C)=C/[C@@H]3CC[C@@H](O)[C@H](OC)C3)[C@H](C)[C@@H](O)CC1=O)[C@H](C)C[C@@H]2OC", "note": "[FR900506]", "values": [{"measurement": "effectiveness relative to cyclosporin", "setting": "[1]", "value": 100, "unit": "times"}]}, {"compound": "CC[C@@H]1C=C2COC1(O)C[C@H](O)[C@@H](C)[C@@H](/C(C)=C/[C@@H]1CC[C@@H](O)[C@H](OC)C1)OC(=O)[C@@H]1CCCCN1C(=O)C(=O)[C@]1(O)O[C@H]([C@@H](OC)C[C@@H](C)C2)[C@@H](OC)C[C@H]1C", "note": "[Compound I]", "values": [{"measurement": "reversal of inhibition of T-cell proliferation by IL2", "setting": "[2]; 50 units/ml recombinant IL2 added at initiation of culture", "value": "reversed"}, {"measurement": "inhibition of T-cell activation", "setting": "[2]; ionomycin + PMA, qualitative", "value": "positive inhibition of T-cell activation"}, {"measurement": "antagonist activity versus FK-506 immunosuppressive activity", "setting": "[3]", "value": "antagonist pharmacological activity"}]}]}
